Test results reported in patent US9029092B2, “Solution phase homogeneous assays” (Beckman Coulter, Inc., priority 2009, dated 2015).
Where two headings read alike, the source gives them in different places.

Legend:
[1] = tested on: PSA; experiment: Screening SSIA by homogeneous PSA immunoassay (anti-PSA-AK1 + anti-PSA-HRP); assay type: biochemical, human
Experimental: This example presents one method used for testing of candidate compounds for functionality as SSIA in assays of the present disclosure. Testing was conducted in a model screening immunoassay of the protein PSA. Tests were run using a 96-well microtiter plate format. A solution containing 30 μL of mouse anti-PSA-AK1 (66 ng), 30 μL of mouse anti-PSA-HRP conjugate (7.8 ng), 36 μL of human female serum, and 24 μL of PSA calibrator were pipetted into each well. The plate was incubated at 37° C. for 10 minutes. A 5 μL aliquot of the test compound (various concentrations) was added to each well. Chemiluminescence was triggered by the addition of 100 μL of a solution of a trigger solution whose composition is listed below. The chemiluminescent flash was integrated for 5 seconds after the addition of the trigger solution using a Luminoskan Asent® plate luminometer, (Thermo Fischer Scientific, Inc., Waltham, Mass.).
It is desirable that the improvement factor be at least 2 (S5/S0≧ about 20-30) and more desirable that improvement factor be at least 5 (S5/S0≧ about 50), yet more desirable that S5/S0 be ≧100 in the present screen.

[2] = tested on: biotinylated HRP; experiment: Model system for selection of SSIA (AK1/streptavidin BSA microparticles + biotinylated HRP); assay type: biochemical, horseradish; conditions: SSIA 100 μM final; for light intensity, BTN-HRP0: Btn-HRP 0 ng/mL; for light intensity, BTN-HRP0 / light intensity, BTN-HRP1 / light intensity, BTN-HRP10 / light intensity, BTN-HRP100 / light intensity, BTN-HRP250: total HRP 500 ng/mL; for S1/S0: Btn-HRP 1 ng/mL vs 0; for light intensity, BTN-HRP1: Btn-HRP 1 ng/mL; for S2/S0: Btn-HRP 10 ng/mL vs 0; for light intensity, BTN-HRP10: Btn-HRP 10 ng/mL; for S3/S0: Btn-HRP 100 ng/mL vs 0; for light intensity, BTN-HRP100: Btn-HRP 100 ng/mL; for S4/S0: Btn-HRP 250 ng/mL vs 0; for light intensity, BTN-HRP250: Btn-HRP 250 ng/mL
Experimental: The model system uses a microparticle conjugated to BSA (bovine serum albumin) labeled with a […] and acridan ketenedithioacetal chemiluminescent label (AK1) as the chemiluminescent-labeled sbp, and biotinylated HRP as the activator-labeled specific binding pair. In the model system, varying amounts of Btn-HRP is added to the chemiluminescent-labeled specific binding pair at 0, 1, 10, 100 and 250 ng/mL. Additional unlabeled HRP is added to reach a total HRP of concentration of 500 ng/mL in each reaction mixture. The unlabeled HRP in combination with the activator-labeled sbp was provided to the chemiluminescent-labeled sbp microparticles to emulate sample. A compound for assessment as an SSIA was also added. This reaction mixture of the model system is then triggered by addition of trigger solution in a manner of assays of the present disclosure.
To prepare the chemiluminescent-labeled sbp on microparticles, Bovine Serum Albumin (BSA) was biotinylated with 4× molar excess of biotin-LC-sulfoNHS (Pierce Biotechnology Inc., Rockford, Ill., USA). Unbound reactants were removed via desalting or dialysis. The biotin-BSA was then reacted with a 5× molar excess of an NHS ester of acridan ketenedithioacetal AK1 in 20 mM sodium phosphate pH 7.2: DMSO 75:25, v/v) followed by desalting in the same buffer. The dual labeled (biotin and AK1) BSA was then coupled with tosyl activated M280 microparticles (Invitrogen Corporation, Carlsbad, Calif., USA) in a 0.1M borate buffer pH 9.5 at a concentration of about 20 μg of labeled BSA per mg of microparticles for 16-24 h at 40° C. After coupling the microparticles were stripped for 1 h at 40° C. with 0.2 M TRIS base, 2% SDS, pH˜11. The stripping process was repeated one additional time. Microparticles were then suspended in a 0.1% BSA/TRIS buffered saline (BSA/TBS) buffer and streptavidin (SA) was added at approximately 15 μg SA per mg microparticles. Streptavidin was mixed with the microparticles for 45-50 min at room temperature. The microparticles were then washed three times and suspended in the same BSA/TBS.
HRP, (Roche Diagnostics, Indianapolis, Ind., USA) was biotinylated with 4× molar excess of biotin-LC-sulfoNHS (Pierce Biotechnology Inc., Rockford, Ill., USA). Alternatively, 25× molar excess of biotin-PEO4-NHS may be used. Unbound reactants were removed via desalting or dialysis.
Each SSIA compound for assessment was solubilized in Buffer II at a concentration at least 10× of the working strength concentration.
25 μl of 1 mg/ml of dual-labeled (biotin and AK1) BSA M280 particles were mixed with 45 μl of working concentration SSIA in Buffer II. The assay volume brought to 85 μl by adding 15 μl of Buffer II. 15 μl of sample containing Btn-HRP:HRP at different ratios (The amount of biotinylated-HRP varied from 0, 1, 10, 100 and 250 ng/mL) was added. The reaction mixture was incubated for 30 min at 37° C., then 100 μL of trigger solution was added and the light intensity recorded. Total volume of reaction mixture, including trigger solution was 200 μL with a final concentration of 100 μM of SSIA.
The screening tests were performed using a modified DxI® Immunoassay System (Beckman Coulter, Inc. Brea, Calif.) as described above.

[3] = tested on: TnI; experiment: Assays utilizing various SSIA in TnI assay; assay type: biochemical; conditions: for Signal/Noise S1/S0: calibrator S1; for Signal/Noise S2/S0: calibrator S2; for Signal/Noise S3/S0: calibrator S3; for Signal/Noise S4/S0: calibrator S4; for Signal/Noise S5/S0: calibrator S5; for Signal/Noise S6/S0: calibrator S6
Experimental: In a reaction tube, 400 uL of TnI M6 antibody-HRP conjugate at 0.5 ug/mL in buffered aqueous solution at pH. 8.0 (100 mM Tris, 150 mM NaCl, 0.1 mM EDTA, 0.2% Tween-20 and 1% BSA), 400 uL of AK1˜Dex70/31˜Streptavidin (fraction 1) 2:1 SA/Ab at 2 ug/mL Ab also in buffered aqueous solution at pH 8.0, and 400 uL of calibrator standard solution containing the TnI analyte at a known concentration. One tube was prepared for each calibrator concentration. […] Next, 25 uL of each antioxidant as a concentrated solution of 2 mM, 1 mM or 0.5 mM was pipetted into the plate wells using a repeater pipette. The plates were rotated for 10 seconds to mix and incubated between 5 to 33 minutes. Detection was performed with a SpectraMax L injection plate luminometer.

[4] = test compound final conc. 0.061 mM (61 uM)
[5] = test compound final conc. 0.244 mM (244 uM)
[6] = SSIA final concentration 125 uM
[7] = SSIA final concentration 250 uM
[8] = SSIA final concentration 500 uM
[9] = SSIA final concentration 6.25 uM
[10] = SSIA final concentration 12.5 uM

c1ccc2c(c1)Cc1ccccc1N2
S5/S0 [1]: 120

Nc1ccc(O)cc1O
S5/S0 ([1]; test compound final conc. 0.030 mM): 161

O=C1C(O)=C(O)C(=O)C(O)=C1O
S5/S0 [1, 4]: 51

O=C1C(O)=C(Cl)C(=O)C(O)=C1Cl
S5/S0 ([1]; test compound final conc. 0.031 mM): 7

O=S(=O)([O-])CCCN1c2ccccc2Cc2ccccc21.[Na+]
S5/S0 [1, 5]: 15

NNC(=O)c1ccccc1O
S5/S0 [1, 4]: 23

O=C1C=C(O)C(=O)C=C1O
S5/S0 [1, 5]: 14

OB(O)c1cc(Cl)ccc1O
S5/S0 [1, 5]: 22

C=CCc1ccc(O)c(OC)c1
S5/S0 [1, 5]: 30

Nc1ccccc1O [2-amino phenol, 2-aminophenol]
light intensity, BTN-HRP0 [2]: 65 | S1/S0 [2]: 5.5 | light intensity, BTN-HRP1 [2]: 356 | S2/S0 [2]: 132.8 | light intensity, BTN-HRP10 [2]: 8,632 | S3/S0 [2]: 32195.4 | light intensity, BTN-HRP100 [2]: 2,092,703 | S4/S0 [2]: 61672.1 | light intensity, BTN-HRP250 [2]: 4,008,689 | effectiveness as SSIA in the model system [2]: demonstrating utility as SSIA | Signal/Noise S1/S0 [3, 6]: 1.4 | Signal/Noise S1/S0 [3, 7]: 0.9 | Signal/Noise S1/S0 [3, 8]: 1.3 | Signal/Noise S2/S0 [3, 6]: 2.3 | Signal/Noise S2/S0 [3, 7]: 1.7 | Signal/Noise S2/S0 [3, 8]: 1.8 | Signal/Noise S3/S0 [3, 6]: 7.6 | Signal/Noise S3/S0 [3, 7]: 4.5 | Signal/Noise S3/S0 [3, 8]: 4.8 | Signal/Noise S4/S0 [3, 6]: 27.2 | Signal/Noise S4/S0 [3, 7]: 15.4 | Signal/Noise S4/S0 [3, 8]: 10.8 | Signal/Noise S5/S0 [3, 6]: 183.7 | Signal/Noise S5/S0 [3, 7]: 101.7 | Signal/Noise S5/S0 [3, 8]: 52.5 | Signal/Noise S6/S0 [3, 6]: 1604.7 | Signal/Noise S6/S0 [3, 7]: 739.1 | Signal/Noise S6/S0 [3, 8]: 329.9

Nc1cc(C[C@H](N)C(=O)O)ccc1O [3-Amino Tyrosine]
Signal/Noise S1/S0 [3, 6]: 1.5 | Signal/Noise S1/S0 [3, 7]: 1.7 | Signal/Noise S1/S0 [3, 8]: 1.1 | Signal/Noise S2/S0 [3, 6]: 2.8 | Signal/Noise S2/S0 [3, 7]: 2.7 | Signal/Noise S2/S0 [3, 8]: 1.9 | Signal/Noise S3/S0 [3, 6]: 9.0 | Signal/Noise S3/S0 [3, 7]: 8.1 | Signal/Noise S3/S0 [3, 8]: 5.9 | Signal/Noise S4/S0 [3, 6]: 32.2 | Signal/Noise S4/S0 [3, 7]: 31.1 | Signal/Noise S4/S0 [3, 8]: 19.8 | Signal/Noise S5/S0 [3, 6]: 234.8 | Signal/Noise S5/S0 [3, 7]: 217.9 | Signal/Noise S5/S0 [3, 8]: 118.6 | Signal/Noise S6/S0 [3, 6]: 2268.7 | Signal/Noise S6/S0 [3, 7]: 1772.4 | Signal/Noise S6/S0 [3, 8]: 766.3

Cc1c(C)c2c(c(C)c1O)CCC(C)(C(=O)O)O2 (centres unmarked) [Trolox ®]
light intensity, BTN-HRP0 [2]: 173 | S1/S0 [2]: 8.4 | light intensity, BTN-HRP1 [2]: 1,460 | S2/S0 [2]: 215.1 | light intensity, BTN-HRP10 [2]: 37,291 | S3/S0 [2]: 41832.7 | light intensity, BTN-HRP100 [2]: 7,251,008 | S4/S0 [2]: 62274.5 | light intensity, BTN-HRP250 [2]: 10,794,247 | effectiveness as SSIA in the model system [2]: demonstrating utility as SSIA | Signal/Noise S1/S0 [3, 6]: 1.6 | Signal/Noise S1/S0 [3, 7]: 2.0 | Signal/Noise S1/S0 [3, 8]: 1.7 | Signal/Noise S2/S0 [3, 6]: 3.3 | Signal/Noise S2/S0 [3, 7]: 3.5 | Signal/Noise S2/S0 [3, 8]: 2.6 | Signal/Noise S3/S0 [3, 6]: 11.5 | Signal/Noise S3/S0 [3, 7]: 12.8 | Signal/Noise S3/S0 [3, 8]: 11.3 | Signal/Noise S4/S0 [3, 6]: 44.4 | Signal/Noise S4/S0 [3, 7]: 45.8 | Signal/Noise S4/S0 [3, 8]: 31.1 | Signal/Noise S5/S0 [3, 6]: 302.0 | Signal/Noise S5/S0 [3, 7]: 295.1 | Signal/Noise S5/S0 [3, 8]: 192.0 | Signal/Noise S6/S0 [3, 6]: 2713.1 | Signal/Noise S6/S0 [3, 7]: 2334.5 | Signal/Noise S6/S0 [3, 8]: 1181.7

O=c1[nH]c(=O)c2[nH]c(=O)[nH]c2[nH]1 [Uric Acid]
light intensity, BTN-HRP0 [2]: 5,532 | S1/S0 [2]: 1.8 | light intensity, BTN-HRP1 [2]: 9,760 | S2/S0 [2]: 185.3 | light intensity, BTN-HRP10 [2]: 1,025,209 | S3/S0 [2]: 1574.9 | light intensity, BTN-HRP100 [2]: 8,712,328 | S4/S0 [2]: 1935.8 | light intensity, BTN-HRP250 [2]: 10,708,733

c1ccc2c(c1)Nc1ccccc1O2 [phenoxazine]
Signal/Noise S1/S0 [3, 9]: 1.5 | Signal/Noise S1/S0 [3, 10]: 1.5 | Signal/Noise S1/S0 ([3]; SSIA final concentration 25 uM): 1.3 | Signal/Noise S2/S0 [3, 9]: 3.1 | Signal/Noise S2/S0 [3, 10]: 2.3 | Signal/Noise S2/S0 ([3]; SSIA final concentration 25 uM): 1.6 | Signal/Noise S3/S0 [3, 9]: 8.4 | Signal/Noise S3/S0 [3, 10]: 6.4 | Signal/Noise S3/S0 ([3]; SSIA final concentration 25 uM): 3.7 | Signal/Noise S4/S0 [3, 9]: 32.1 | Signal/Noise S4/S0 [3, 10]: 24.5 | Signal/Noise S4/S0 ([3]; SSIA final concentration 25 uM): 12.1 | Signal/Noise S5/S0 [3, 9]: 227.2 | Signal/Noise S5/S0 [3, 10]: 147.2 | Signal/Noise S5/S0 ([3]; SSIA final concentration 25 uM): 62.8 | Signal/Noise S6/S0 [3, 9]: 2049.8 | Signal/Noise S6/S0 [3, 10]: 1116.9 | Signal/Noise S6/S0 ([3]; SSIA final concentration 25 uM): 387.3

(+/−)-alpha-Tocopherol
light intensity, BTN-HRP0 [2]: 2,772 | S1/S0 [2]: 2.3 | light intensity, BTN-HRP1 [2]: 6,468 | S2/S0 [2]: 452.1 | light intensity, BTN-HRP10 [2]: 1,253,187 | S3/S0 [2]: 3088.2 | light intensity, BTN-HRP100 [2]: 8,560,469 | S4/S0 [2]: 3473.4 | light intensity, BTN-HRP250 [2]: 9,628,184
